Experimental findings from patent US4774248A, “Methods of treating depression and depressive states using 5-phenyl-1,4,5,6-tetrahydropyrimidine derivatives” (priority 1985, dated 1988) are described below.

Structures are written as SMILES. “Also recorded” adds a separate entry of the source.

Data set [1] is described as follows: Acute toxicity, intraperitoneal (LD0, LD30, LD60, LD100). Type of data set: in vivo. The settings on record: mouse, in vivo, ip; 128 mg/kg i.p., male mice; read-out: death 24 h after administration. On the procedure:
(§1) The results of toxicological and neuropsychopharmacological tests which were carried out with the products according to the invention have been summarized below. In these tests, solutions of the said products in distilled water were administered intraperitoneally in a volume of 20 ml/kg to male mice and in a volume of 5 ml/kg to male rats.

Data set [2] deals with male mice. The description is as above. Type of data set: in vivo. On the procedure:
as §1

Data set [3] deals with mice. Description: Overall behavior and reactivities in mice. Type of data set: in vivo. The settings on record: i.p. The method in brief: (§2)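 Male mice (20 ml/kg) and male rats (5 ml/kg) dosed intraperitoneally with compound in distilled water.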
Data set [4] relates to rats. Put plainly: Overall behavior and reactivities in rats. The data set is classed as in vivo. The following applies: i.p. The method in brief:
as §2

For data set [5], the system named is hypothermia, righting behavior and stereotypies induced by apomorphine. Put plainly: Interaction with apomorphine in mice. The data set is classed as in vivo. The following applies: i.p. The method in brief: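 Male mice, groups of 6, given test compound intraperitoneally in distilled water (20 ml/kg) 30 min before subcutaneous apomorphine at 1 or 16 mg/kg. Hypothermia, righting behaviour and stereotypies scored.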

Data set [6] has as its system stereotypies induced by apomorphine. Put plainly: Interaction with apomorphine in rats. The data set is classed as in vivo. The following applies: i.p., apomorphine 0.5 mg/kg s.c. On the procedure:
as §1
CRL 41 378 is administered to groups of 12 rats 0.5 h before the subcutaneous injection of 0.5 mg/kg of apomorphine.

Data set [7] has as its system hypothermia and ptosis induced by reserpine. Put plainly: Interaction with reserpine. The following applies: mice, i.p.; reserpine 2.5 mg/kg. The data set is classed as in vivo. The gist of the method: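 Reserpine 2.5 mg/kg i.p. given to male mice in groups of 12; test compound dissolved in distilled water and given i.p. (20 ml/kg) four hours later.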
The test system of data set [8] is hypothermia, trembling and peripheral cholinergic symptoms induced by oxotremorine. Put plainly: Interaction with oxotremorine. The data set is classed as in vivo. The settings on record: mice, i.p.; oxotremorine 0.5 mg/kg. The method in brief:
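Male mice, groups of 6, given the compound intraperitoneally in distilled water (20 ml/kg) 0.5 h before 0.5 mg/kg oxotremorine i.p. Hypothermia, trembling and peripheral cholinergic symptoms were assessed.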

For data set [9], the system named is mice. Put plainly: Electric shock. The data set is classed as in vivo. The settings on record: i.p. On the procedure: as §1
The test is performed on groups of 10 mice 30 minutes after the administration of CRL 41 378.

Data set [10] relates to mice. Put plainly: Spontaneous motility (actimeter). The data set is classed as in vivo. The following applies: i.p. On the procedure: as §1
0.5 h after they have received CRL 41 378, the mice (6 per dose, 12 control animals) are placed in an actimeter, where their motility is recorded for 30 minutes.

The subject of data set [11] is mice. Description: Intergroup aggressiveness. The settings on record: mice, i.p. Type of data set: in vivo. The method in brief:
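Male mice housed 3 weeks per group in cage halves split by an opaque partition; groups of 3 given CRL 41 378 i.p. in distilled water.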

Data set [12] relates to mice. Description: Motility reduced by hypoxic aggression (acute hypobaric anoxia). Type of data set: in vivo. The following applies: i.p. How it is done: In these tests, solutions of the said products in distilled water were administered intraperitoneally in a volume of 20 ml/kg to male mice and in a volume of 5 ml/kg to male rats.
Data set [13] has as its system central nervous system (CNS). Description: Neuropsychopharmacological profile (conclusions of the tests). The data set is classed as in vivo, mice and rats. The following applies: i.p. How it is done:
as §1

Take `Cl.Clc1ccc(C2CN=CNC2)cc1` (stereo not drawn) [CRL 41 336, 5-(4-chlorophenyl)-1,4,5,6-tetrahydropyrimidine hydrochloride]: the mortality at 24 h in data set [1] was found to be 60%. The “toxic signs in the animals treated” value in data set [2] (64 mg/kg i.p.) was “all the animals treated exhibit sedation and a decrease in the breathing rate”; in data set [2] (128 mg/kg i.p.), “the animals exhibit sedation and a decrease in the breathing rate”. The “LD0 (maximum non-lethal dose)” value in data set [2] (intraperitoneal) was “greater than 64 mg/kg”. In addition, the LD60 entry in data set [2] (intraperitoneal) is “about 128 mg/kg”. Also, the “LD100 (minimum dose lethal to all the animals)” value in data set [2] (intraperitoneal) was 200 to 210 mg/kg. In data set [3] (32 mg/kg, from 1 to 3 hours), the moderate hypothermia is -1.3 °C. In addition, the “overall behavior and reactivities” value was “sedation for 0.25 h; also recorded: a decrease in the breathing rate from 1 to 3 hours; also recorded: moderate hypothermia; also recorded: vasodilation of the ears and tail from 0.5 h to 3 h” in data set [3] (32 mg/kg, hydrochloride); “no distinct modification of the behavior and reactivities” in data set [3] (0.5 to 8 mg/kg); “mydriasis for 2 hours (maximum 0.5 h after administration)” in data set [4] (4 mg/kg); “sedation for 3 h; also recorded: a decrease in the breathing rate for 3 h; also recorded: mydriasis for 3 h (with its maximum intensity 0.5 h after administration); also recorded: piloerection for 1 h; also recorded: vasodilation (of the paws) for 2 h” in [4] (16 mg/kg, hydrochloride); “behavior, reactivities and variations in rectal temperature and pupil diameter which are substantially comparable to those of the animals in the control group” in data set [4] (0.25 and 1 mg/kg). Besides, the “action on hypothermia induced by apomorphine” value in data set [5] is “distinct antagonism of the hypothermia induced by apomorphine and oxotremorine”. Also, the “action on righting behavior and stereotypies due to apomorphine” value in data set [5] was “decreases the stereotypies induced by apomorphine in rats and mice”. Besides, the “action on stereotypies induced by apomorphine” value in data set [6] was “decreases the stereotypies induced by apomorphine in rats and mice”. In data set [7], the “action on hypothermia induced by reserpine” value is “more moderate antagonism of the hypothermia induced by reserpine”. The “action on hypothermia induced by oxotremorine” value in data set [8] was “distinct antagonism of the hypothermia induced by apomorphine and oxotremorine”. Further, in data set [9], the “lethal effects of electric shock” value is listed as “aggravation of the lethal effect of electric shock”. Also, the spontaneous motor activity result in data set [10] is recorded as “a decrease in the spontaneous motor activity”. The “intergroup aggressiveness (number of fights)” value in data set [11] was “a decrease in the intergroup aggressiveness in mice”. Besides, the “motor recovery after acute hypobaric hypoxia” value in data set [12] is “a decrease in the motility after acute hypobaric hypoxia”. In data set [13], the antidepressant effects entry was “antidepressant effects”. The “peripheral α-adrenergic stimulant effects” value in [13] is “peripheral α-adrenergic stimulant effects appearing at high doses, especially as mydriasis and piloerection in rats”. The sedative effects entry in data set [13] (hydrochloride) was “sedation in mice and rats; also recorded: hypothermia (transient) in mice”.
